The values below come from patent publication US20260097047A1, “Small molecule inhibitors of the ribosome biogenesis factor NVL2” (Board of Regents, The University of Texas System, priority 2023, published 2026).

Some results are limits rather than exact numbers.

The subject of one assay is HCT116 cells. Briefly: Cell viability assay (CellTiter-Glo, 72 hours) in HCT116 human colorectal cancer cells. Type of assay: cell-based. The note with it: Homo sapiens, HCT-116; Table 5; HCT116, 72 hours; read-out: Activity. The procedure, abridged: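 Ten-point IC50 came from an asymmetric five-parameter fit of luminescence corrected to vehicle wells. ATP content was measured by CellTiter-Glo 72 h after dosing at 37 °C. Cells were seeded at 2,000/well the day before, with 0.5% DMSO in all wells.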
Take `CCC/C=C/CN1C(=O)c2ccccc2Sc2cc(Nc3cc(F)ccn3)ccc21` [(E)-7-((4-Fluoropyridin-2-yl)amino)-10-(hex-2-en-1-yl)dibenzo[b,f][1,4]thiazepin-11(10H)-one]: the IC50 is less than 500 nM. `CCC/C=C/CN1C(=O)c2ccccc2Sc2cc(Nc3ncccn3)ccc21` [(E)-10-(Hex-2-en-1-yl)-7-(pyrimidin-2-ylamino)dibenzo[b,f][1,4]thiazepin-11 (10H)-one]: the IC50 was 1000 to 5000 nM.

Consider `CC#CCN1C(=O)c2ccccc2Sc2cc(Nc3ncc(C)cc3C)ccc21` [10-(But-2-yn-1-yl)-7-((3,5-dimethylpyridin-2-yl)amino)dibenzo[b,f][1,4]thiazepin-11 (10H)-one], for which the IC50 was less than 500 nM. As for `CC#CCN1C(=O)c2ccccc2Sc2cc(Nc3ncc(C)nc3C)ccc21` [10-(But-2-yn-1-yl)-7-((3,5-dimethylpyrazin-2-yl)amino)dibenzo[b,f][1,4]thiazepin-11 (10H)-one], the IC50 was less than 500 nM.

Staying with this assay, now noted: Homo sapiens, HCT-116; Table 6; HCT116, 72 hours; read-out: Activity.
On to `CC#CCN1C(=O)c2ccccc2Sc2cc(NC3COCC3OC)ccc21` (centres unmarked) [10-(But-2-yn-1-yl)-7-((4-methoxytetrahydrofuran-3-yl)amino)dibenzo[b,f][1,4]thiazepin-11 (10H)-one], for which the IC50 is less than 500 nM. On the same count and under the same terms, the value for `CC#CCN1C(=O)c2ccccc2Sc2cc(NC3CCOC3C)ccc21` (centres unmarked) [10-(But-2-yn-1-yl)-7-((2-methyltetrahydrofuran-3-yl)amino)dibenzo[b,f][1,4]thiazepin-11 (10H)-one] was less than 500 nM.

Staying with this assay, now noted: Homo sapiens, HCT-116; Table 9; HCT116, 72 hours; read-out: Activity.
Consider `CC#CCN1C(=O)c2ccccc2C(C)c2cc(NC(=O)c3ccc4oc(=O)n(C)c4c3)ccc21` (centres unmarked) [N-(5-(But-2-yn-1-yl)-11-methyl-6-oxo-6,11-dihydro-5H-dibenzo[b,e]azepin-2-yl)-3-methyl-2-oxo-2,3-dihydrobenzo[d]oxazole-5-carboxamide], for which the IC50 is less than 500 nM.

The assay is the same for the next values; noted with them: Table 3; HCT116, 72 hours; read-out: Activity.
As to `CC#CCN1C(=O)c2ccccc2Sc2cc(NC(=O)N[C@H]3C[C@@H](O)C3)ccc21` [Table 3: —CH2CCMe; cis-3-OH-cBu; CH/CH], the IC50 was less than 500 nM.

Still in this assay, the particulars now being: Table 4; HCT116, 72 hours; read-out: Activity.
In the case of `CC#CCN1C(=O)c2ccccc2Sc2cc(NC(=S)Nc3ccc(OC)nc3)cnc21` [Table 4: —CH2CCMe; 6-MeO-pyridin-3-yl; N], the IC50 was less than 500 nM. For the compound `CC#CCN1C(=O)c2ccccc2Sc2cc(NC(=S)N[C@H]3C[C@H](OC)C3)ccc21` [Table 4: —CH2CCMe; trans-3-MeOcBu; CH], the IC50 is less than 500 nM. As for `CC#CCN1C(=O)c2ccccc2Sc2cc(NC(=S)Nc3ccc(OC(F)F)cc3)cnc21` [Table 4: —CH2CCMe; 4-F2HCOPh; N], the IC50 was less than 500 nM. As to `CC#CCN1C(=O)c2ccccc2Sc2cc(NC(=S)N[C@H]3C[C@H](OC)C3)cnc21` [Table 4: —CH2CCMe; trans-3-MeOcBu; N], the IC50 was less than 500 nM.

The assay is the same for the next values; noted with them: Table 5; HCT116, 72 hours; read-out: Activity.
Turning to `CC#CCN1C(=O)c2ccccc2Sc2cc(Nc3nc(C)cnc3C)cnc21`, the IC50 is less than 500 nM. Consider `CCCC=CCN1C(=O)c2ccccc2Sc2cc(Nc3ncc(C)cc3C)cnc21`, for which the IC50 was less than 500 nM.

Staying with this assay, now noted: Table 6; HCT116, 72 hours; read-out: Activity.
On to `CC#CCN1C(=O)c2ccccc2Cc2cc(NC3CC(COC)C3)ccc21` (centres unmarked), for which the IC50 is less than 500 nM. Regarding `CC#CCN1C(=O)c2ccccc2Sc2cc(NC3CC(CO)C3)cnc21` (centres unmarked) [Table 6: —CH2CCMe; 3-HOCH2-cBu; CH/N; S], the IC50 is less than 500 nM. Regarding `O=C1c2ccccc2Sc2cc(NC3CC(O)C3)cnc2N1CC#CCl` (centres unmarked) [Table 6: —CH2CCCl; 3-HOcBu; CH/N; S], the IC50 is less than 500 nM.

Still in this assay, the particulars now being: Table 7; cell viability assay, CellTiter-Glo, 72 hours; scaffold drawing 42 with R^2, R^3, X/Y, Z; read-out: Activity.
`CCCOCCN1C(=O)c2ccccc2Sc2cc(NC(=O)c3ccc(OC)cc3)ccc21` [—(CH2)2OPr; 4-MeOPh; CH/CH; S]: the IC50 is less than 500 nM. For `COCCN1C(=O)c2ccccc2Sc2cc(NC(=O)c3cccc(C#N)c3)ccc21` [—(CH2)2OMe; 3-CNPh; CH/CH; S], the IC50 was 1000 to 5000 nM.

With `COCCN1C(=O)c2ccccc2Sc2cc(NC(=O)c3ccc(OC(F)F)c(F)c3)ccc21` [—(CH2)2OMe; 3-F,4-F2HCOPh; CH/CH; S], the IC50 was in the range of 1000 to 5000 nM. For the compound `C#CCOCCN1C(=O)c2ccccc2Sc2cc(NC(=O)c3ccc(N=[N+]=[N-])cc3)ccc21` [—(CH2)2OCH2CCH; 4-N3Ph; CH/CH; S], the IC50 is less than 500 nM.

For `COCCN1C(=O)c2ccccc2Sc2cc(NC(=O)C3CCCCC3)ccc21` [—(CH2)2OMe; cHex; CH/CH; S], the IC50 was 1000 to 5000 nM. Same read-out and setting: the same measure for `COCCN1C(=O)c2ccccc2Sc2cc(NC(=O)c3ccccc3OC)ccc21` [—(CH2)2OMe; 2-MeOPh; CH/CH; S]: less than 500 nM; for `COCCN1C(=O)c2ccccc2Sc2cc(NC(=O)c3ccc(OC(F)F)cc3)ccc21` [—(CH2)2OMe; 4-F2HCOPh; CH/CH; S]: 500 to 1000 nM. Consider `COCCN1C(=O)c2ccccc2Sc2cc(NC(=O)c3ccc(NC=O)c(Cl)c3)ccc21` [—(CH2)2OMe; 3-Cl,4-HC(O)NHPh; CH/CH; S], for which the IC50 lay in the range of 1000 to 5000 nM.

Staying with this assay, now noted: Table 8; analogs of scaffold drawing 43 defined by R^2, R^3, X/Y, W; read-out: Activity (IC50 class, cell viability assay).
With `CO[C@H]1C[C@@H](C(=O)Nc2cnc3c(c2)Sc2ccccc2C(=O)N3CC#CC(F)(F)F)C1` [—CH2CCCF3; cis-3-MeOcBu; CH/CH; N], the IC50 is less than 500 nM. In the case of `CC#CCN1C(=O)c2ccc(Cl)cc2Sc2cc(NC(=O)C3CC4(COC4)C3)ccc21`, the IC50 is less than 500 nM.

Consider `CO[C@H]1C[C@H](C(=O)Nc2cnc3c(c2)Sc2ccccc2C(=O)N3CC#CCl)C1` [—CH2CCCl; trans-3-MeOcBu; CH/CH; N], for which the IC50 is less than 500 nM. On the same count and under the same terms, the value for `O=C1c2cc(F)ccc2Sc2cc(NC(=O)C34CC(O)(C3)C4)cnc2N1CC#CC1CC1` was less than 500 nM; that for `CC#CCN1C(=O)c2ccccc2Sc2cc(NC(=O)C3CC(OC)C3)ccc21` (stereo not drawn) [—CH2CCMe; cis-3-MeOcBu; CH/CH; CH] was less than 500 nM; that for `C#CCN1C(=O)c2ccccc2Sc2cc(NC(=O)[C@H]3C[C@H](OC)C3)ccc21` [—CH2CCH; trans-3-MeOcBu; CH/CH; CH] was less than 500 nM. `C#Cc1ccc(C(=O)Nc2ccc3c(c2)Sc2ccccc2C(=O)N3CC#CC)cn1` [—CH2CCMe; 6-(HCC)pyrid-3-yl; CH/CH; CH]: the IC50 is less than 500 nM. In the case of `CC#CCN1C(=O)c2ccccc2Sc2cc(NC(=O)[C@@H]3C[C@H]3COC)cnc21` (relative stereo) [—CH2CCMe; trans-2-MeOCH2-cPr; CH/CH; N], the IC50 was less than 500 nM.

In the case of `CC#CCN1C(=O)c2ccc(Cl)cc2Sc2cc(NC(=O)NCCOC)cnc21` [—CH2CCMe; NH(CH2)2OMe; CCl/CH; N], the IC50 was less than 500 nM. As to `O=C(Nc1cnc2c(c1)Sc1ccccc1C(=O)N2CC#CC(F)(F)F)C1CC2(CC(=NO)C2)C1` (centres unmarked), the IC50 is less than 500 nM. Consider `CC#CCN1C(=O)c2ccccc2Sc2cc(NC(=O)C3CNC(=O)C3)ccc21` (centres unmarked) [—CH2CCMe; 2-oxo-pyrrolidin-4-yl; CH/CH; CH], for which the IC50 fell in the range of 1000 to 5000 nM. For `CC#CCN1C(=O)c2ccc(Cl)cc2Sc2cc(NC(=O)[C@H]3C[C@H](O)C3)cnc21` [—CH2CCMe; trans-3-OH-cBu; CCl/CH; N], the IC50 was less than 500 nM.

The same assay, now with this note: Table 9; HCT116, 72 hours; read-out: Activity.
Regarding `CC1(O)c2ccccc2C(=O)N(CC#CC2CC2)c2ccc(NC(=O)[C@@H]3C[C@H]3CO)cc21` (relative stereo), the IC50 is less than 500 nM. For the compound `CC1c2ccccc2C(=O)N(CC#CC2CC2)c2ccc(NC(=O)C3CCCO3)cc21` (centres unmarked), the IC50 is less than 500 nM. As to `CC#CCN1C(=O)c2ccccc2C(C)(O)c2cc(NC(=O)C3CC4(CC(=NO)C4)C3)ccc21` (centres unmarked), the IC50 is less than 500 nM. Regarding `CC1c2ccccc2C(=O)N(CC#CC2CC2)c2ccc(NC(=O)C3CC4(CC(=NO)C4)C3)cc21` (centres unmarked), the IC50 was less than 500 nM.

The assay is the same for the next values; noted with them: cell viability assay; Table 10 analogs of scaffold drawing 45 defined by R2, R3, X/Y, W; read-out: Activity.
Turning to `CO[C@H]1C[C@H](C(=O)Nc2cnc3c(c2)Sc2ccccc2C(=O)N3CC#CCl)C1` [—CH2CCCl; trans-3-MeOcBu; CH/CH; N], the IC50 was less than 500 nM.

On to `CC#CCN1C(=O)c2ccccc2Sc2cc(NC(=O)C3CC(OC)C3)ccc21` (stereo not drawn) [—CH2CCMe; cis-3-MeOcBu; CH/CH; CH], for which the IC50 was less than 500 nM. Consider `C#CCN1C(=O)c2ccccc2Sc2cc(NC(=O)[C@H]3C[C@H](OC)C3)ccc21` [—CH2CCH; trans-3-MeOcBu; CH/CH; CH], for which the IC50 was less than 500 nM.
